Each block holds one molecule with its values, some of them ahead of it.
Experiments:
BACE-1 [1] = biological target: T1, BACE-1 (Homo sapiens, UniProt P56817); test: BACE-1 enzyme assay; assay type: biochemical
BACE-1 [2] = biological target: T1, BACE-1; test: BACE-1 cell assay; conditions: HEK293, read-out: percent inhibition of BACE-1 in cell-based assay

T1 sequence (P56817 46-501): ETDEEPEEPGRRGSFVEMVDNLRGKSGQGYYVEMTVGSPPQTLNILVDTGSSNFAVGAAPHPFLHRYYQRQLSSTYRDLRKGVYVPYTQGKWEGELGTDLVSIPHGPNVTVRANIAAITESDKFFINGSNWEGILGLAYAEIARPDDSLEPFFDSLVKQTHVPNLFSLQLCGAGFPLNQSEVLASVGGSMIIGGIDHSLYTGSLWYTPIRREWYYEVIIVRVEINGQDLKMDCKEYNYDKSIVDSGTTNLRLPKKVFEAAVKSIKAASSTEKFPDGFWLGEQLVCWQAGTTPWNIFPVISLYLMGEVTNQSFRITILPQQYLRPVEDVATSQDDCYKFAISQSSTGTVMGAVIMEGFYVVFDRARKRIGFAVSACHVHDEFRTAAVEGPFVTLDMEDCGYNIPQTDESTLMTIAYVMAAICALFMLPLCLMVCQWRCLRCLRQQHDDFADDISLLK

Structure (SMILES): CO[C@H](C[C@H](O)[C@@H](N)COc1cccc(OCc2ccccc2)c1)C(=O)N[C@H](C(=O)NCc1ccccc1)C(C)C [Compound 17, (2R,4S,5S)-5-Amino-6-(3-benzyloxy-phenoxy)-4-hydroxy-2-methoxy-hexanoic acid ((S)-1-benzylcarbamoyl-2-methyl-propyl)-amide]
- IC50 (BACE-1 [1]): > 10 µM

Structure (SMILES): CO[C@H](C[C@H](O)[C@H](COc1ccc(OCc2ccccc2)cc1)NC(=O)c1cccc(N(C)S(C)(=O)=O)c1)C(=O)N[C@H](C(=O)NCc1ccccc1)C(C)C [Compound 19, N-[(1S,2S,4R)-4-((S)-1-Benzylcarbamoyl-2-methyl-propylcarbamoyl)-1-(4-benzyloxy-phenoxymethyl)-2-hydroxy-4-methoxy-butyl]-3-(methanesulfonyl-methyl-amino)-benzamide]
- IC50 (BACE-1 [1]): 4.6 µM

Structure (SMILES): COCCCOc1cc(OC[C@H](N)[C@@H](O)C[C@@H](OC)C(=O)N[C@H](C(=O)NCc2ccc(Cl)cc2)C(C)C)ccc1-c1ccc(F)cc1 [Compound 20, (2R,4S,5S)-5-Amino-6-[4'-fluoro-2-(3-methoxy-propoxy)-biphenyl-4-yloxy]-4-hydroxy-2-methoxy-hexanoic acid [(S)-1-(4-chloro-benzylcarbamoyl)-2-methyl-propyl]-amide]
- IC50 (BACE-1 [1]): 2.7 µM

Structure (SMILES): CC[C@H](C)[C@H](NC(=O)[C@@H](C[C@H](O)[C@@H](N)COc1ccc(-c2ccc(F)cc2)cc1)OC)C(=O)NCc1ccc(Cl)cc1 [Compound 23, (2R,4S,5S)-5-Amino-6-(4'-fluoro-biphenyl-4-yloxy)-4-hydroxy-2-methoxy-hexanoic acid [(1S,2S)-1-(4-chloro-benzylcarbamoyl)-2-methyl-butyl]-amide]
- IC50 (BACE-1 [1]): > 10 µM

Now those with a lower IC50 (BACE-1 [1]), led by results:

- IC50 (BACE-1 [1]): 0.54 µM
- inhibition at 1 µM (BACE-1 [2]): 28%
Structure (SMILES): CC[C@H](C)[C@@H](CNc1ccc(Cl)cc1)NC(=O)[C@@H](C[C@H](O)[C@@H](N)COc1ccc(-c2ccc(F)cc2)c(OCCCOC)c1)C(C)C [Compound 30, (2S,4S,5S)-5-amino-N-((2S,3S)-1-(4-chlorophenylamino)-3-methylpentan-2-yl)-6-(4'-fluoro-2-(3-methoxypropoxy)bi-phenyl-4-yloxy)-4-hydroxy-2-isopropylhexanamide]

- IC50 (BACE-1 [1]): 0.3 µM
- inhibition at 1 µM (BACE-1 [2]): 14%
Structure (SMILES): CC[C@H](C)[C@@H](CNc1ccc(Cl)cc1)NC(=O)[C@H](Cc1ccccc1)C[C@H](O)[C@@H](N)COc1ccc(-c2ccc(F)cc2)c(OCCCOC)c1 [Compound 28, (2R,4S,5S)-5-amino-2-benzyl-N-((2S,3S)-1-(4-chlorophenylamino)-3-methylpentan-2-yl)-6-(4'-fluoro-2-(3-methoxypropoxy)biphenyl-4-yloxy)-4-hydroxyhexanamide]

- IC50 (BACE-1 [1]): 0.069 µM
- inhibition at 1 µM (BACE-1 [2]): 3%
Structure (SMILES): CC[C@H](C)[C@H](NC(=O)[C@@H](C[C@H](O)[C@H](COc1ccc(-c2ccccc2)c(OCCCOC)c1)NC(=O)c1cc(C(=O)N[C@H](C)c2ccccc2)cc(N(C)S(C)(=O)=O)c1)OC)C(=O)NCc1ccc(Cl)cc1 [Compound 25, N-{(1S,2S,4R)-4-[(1S,2S)-1-(4-Chloro-benzylcarbamoyl)-2-methyl-butylcarbamoyl]-2-hydroxy-4-methoxy-1-[2-(3-methoxypropoxy)-biphenyl-4-yloxymethyl]-butyl}-5-(methanesulfonyl-methyl-amino)-N'-((R)-1-phenyl-ethyl)-isophthalamide]
